Like-named read-outs stand apart in the source and are kept apart here.
Legend:
[1] = system: primary human umbilical vein endothelial cells (HUVEC); test: Tube formation of HUVEC, Matrigel gel method; format: cell-based; settings: 8 hours on Matrigel, compared with Ctrl control group
Procedure: 1.3 Detect Tube Formation of Human Umbilical Vein Endothelial Cells (HUVEC) Promoted by IDHP—Matrigel Gel Method
Pipette tips and 96-well plate were pre-cooled at −20° C. Matrigel gel was placed on ice and melted, and then added to the pre-cooled 96-well plate (60 μl/well). Avoid the formation of air bubbles. The plate was placed on ice for 5 minutes to level the Matrigel gel, and then put into a cell culture incubator for 30 minutes to solidify. Endothelial cells were added to the wells (5×10^4 cells/well) containing Matrigel gel, and fresh medium containing different concentrations of the drug was added, incubated at 37° C. for 8 hours. The plate was observed under a microscope, 5 fields of view were chosen at 0, 3, 6, 9 o'clock positions and the center of each well, the number of tubules and the integrity of the tubular structure were observed and images were acquired.

[2] = system: zebrafish intersegmental vessels; test: Angiogenesis in transgenic Tg (VEGFR2:GFP) zebrafish (intersegmental vessels); format: in vivo; settings: for Length of Blood Vessels / Number of Blood Vessels: zebrafish ISV
Procedure: The transgenic Tg (VEGFR2:GFP) zebrafishes were cultured under the standard conditions of illumination for 14 hours/dark for 10 hours at 28° C. Healthy and mature zebrafishes were put into a breeding container at a ratio of female to male 1/1 or 1/2 for mating. The fertilized eggs were obtained at 9 to 10 o'clock the next day. The fertilized eggs were sterilized and washed, then transferred to zebrafish embryo culture medium and cultured at 28° C.
Drug solution was added to a 24-well culture plate, and 24 hpf embryos were carefully transferred to wells, 8-10 per well, and culture medium was added until a total volume of 2 ml to make sure that the final concentration of DMSO in the medium was not higher than 1%. After 24-hour drug treatment, the embryos were observed under a fluorescence microscope, and the total number of intersegmental vessels in trunk and tail were counted, and the relative generation rate of ISV in each administration group was calculated. Analysis of variance between groups was performed using SPSS software.

[3] = system: human umbilical vein endothelial cells (HUVEC); test: Proliferation of human umbilical vein endothelial cells, CCK-8 method; format: cell-based; settings: 10^−9 to 10^−7 M, 48 hours, compared with blank control, P<0.01, FIG. 1
Procedure: 1.1 Detect Proliferation of Human Umbilical Vein Endothelial Cells Promoted by IDHP—CCK-8 Method
Human umbilical vein endothelial cells were seeded in a 96-well plate at a density of approximately 2,500 cells per well. After the cells were culture for 24 hours, the medium was changed for a fresh medium containing drug, 100 μl/well, and the cells were continued culturing for 48 hours. 2 hours before the end of drug treatment, CCK-8 reagent was added to the culture medium in the dark, 10 μl per well. The culture was continued for 2 hours, and then the absorbance at 450 nm was determined with a microplate reader to calculate the cell proliferation rate.

[4] = system: human platelet aggregation induced by collagen; test: Collagen-induced normal human platelet aggregation, turbidimetry; format: cell-based; settings: human PRP, collagen 3 μmol/L, compared with collagen alone (Ctrl), P<0.001, FIG. 6
Procedure: (§1) The whole blood samples of healthy volunteers were collected into the anticoagulant tubes and centrifuged at 800 g for 5 minutes at room temperature. The light yellow supernatant was the platelet-rich plasma (PRP); the remaining solution was further centrifuged at 4000 g for 10 minutes at room temperature, and the supernatant obtained was platelet-poor plasma (PPP).
(§2) PRP was adjusted to 3×10^5 platelets/μl with PPP, 300 μl of adjusted PRP was added to 30 μl of PBS or different concentrations of IDHP and incubated at 37° C. for 3 minutes in a blood coagulation apparatus. Collagen or ADP at a final concentration of 3 μmol/L was added to initiate the aggregation reaction of platelets. The inhibitory effect of IDHP and clopidogrel on platelet aggregation was determined by turbidimetry.

[5] = system: mice; test: Acute toxicity test in mice with rapid administration (IV); format: in vivo
Procedure: (§3) 4.1 Acute Toxicity Test in Mice with Rapid Administration
(§4) Sixty mice were used, half male and half female, and randomly divided into 6 groups. […] The spacing between the concentrations was 1:0.9. After the animals were fasted for 12 hours, each group was subjected to IV administration, the volume was 20 ml/kg, and the administration was completed within 5 seconds for each animal.

[6] = as above; format: in vivo; settings: both sexes, mouse, in vivo, iv, mice, IV, administration completed within 5 seconds
Procedure: as §3, §4

[7] = system: mice; test: Acute toxicity test in mice with slow administration (tail vein); format: in vivo
Procedure: (§5) 4.2 Acute Toxicity Test in Mice with Slow Administration
(§6) After housing in the laboratory for 1 day, the test mice with qualified body weight were selected and randomly divided into groups according to body weight and sex, 10 for each group, half male and half female. According to the result of premeasurement, the absolute lethal dose was 2.4 g/kg. The mice were subjected to tail vein administration, the dose for the mice was calculated according to body weight. The doses were 2.4 g/kg, 2.2 g/kg, 2.0 g/kg, and 1.8 g/kg, respectively, and the drug delivery rate was calculated. The administration was completed within 10 minutes. The reactions of the mice were observed after the administration and the death of the mice was recorded within 14 days.
(§7) The main toxic reactions after intravenous administration were central inhibition, respiratory failure, etc. Most of the death occurred during the administration period. […] After 14 days of observation, the mortality rate of the mice was calculated.

[8] = as above; format: in vivo; settings: both sexes, mouse, in vivo, intravenous, mice, tail vein, administration completed within 10 minutes, 14 days observation
Procedure: as §5, §6, §7

[9] = system: red blood cells; test: Hemolysis assay; format: cell-based, domestic rabbit; settings: rabbit 2% red blood cells, IDHP groups 2 to 10 (10^−3 mol/l), 37±0.5° C., 0.5 h to 3 h
Procedure: Arterial blood from domestic rabbit was collected, fibrin was removed, red blood cells were washed with physiological saline and then formulated into a 2% red blood cell physiological saline solution. The test was operated according to Table 4, four parallel test tubes in each group.
After the above operation, the tubes were put in water bath at 37±0.5° C., one tube from each group was taken at 0.5 h, 1 h, 2 h and 3 h respectively, centrifuged at 3000 rpm for 15 minutes. Red blood cell hemolysis was observed, at the same time, the morphology of red blood cells was observed under light microscope.

[10] = system: human platelet aggregation induced by ADP; test: ADP-induced normal human platelet aggregation, turbidimetry; format: cell-based; settings: human PRP, ADP 3 μmol/L, compared with ADP alone (Ctrl), FIG. 6
Procedure: as §1, §2

[11] = system: human umbilical vein endothelial cells (HUVEC); test: Migration of HUVEC, scratch method; format: cell-based; settings: 10^−10 to 10^−7 M, 16 hours, FIG. 2
Procedure: 1.2 Detect Migration of Human Umbilical Vein Endothelial Cells (HUVEC) Promoted by IDHP—Scratch Method
Endothelial cells were seeded on a cover slip pre-coated with gelatin in a 24-well plate at a density of about 10^5 cells per well. After the cells attached to the cover slip and reached confluence, cells were starved in a medium without serum for 4 hours. A home-made tool was used to make scratch on the cover slip with cells. The cover slip was washed twice with PBS, and a medium containing drug was added, 600 μl/well. Control group was immediately fixed with ice-cold methanol at zero time point; rest of the cells were cultured for 16 hours, and then fixed with ice-cold methanol. Images were acquired under a microscope and subjected to statistics analysis.

For `CC(C)OC(=O)C(O)Cc1ccc(O)c(O)c1` (stereo not drawn) [IDHP, β-(3,4-dihydroxyphenyl)-α-hydroxyisopropyl propionate], the “tube formation of primary HUVEC” value [1] was “significantly promoted”, the “growth of intersegmental vessels and posterior longitudinal blood vessels in zebrafish” value ([2]; 0.01, 0.1 and 1.0 μM, 24-hour treatment, FIG. 4) was “significantly promoted” and the “relative generation rate of ISV” value ([2]; calculated from total vessel length vs PTK787 control and normal control, FIG. 5) was “dose-dependent relationship”. The “Length of Blood Vessels” value ([2]; 0.01 μM) was 287.4 ± 18.8 μm, the “Number of Blood Vessels” value ([2]; 0.01 μM) was 25.0 ± 8.6 and the “Length of Blood Vessels” value ([2]; 0.1 μM) was 359.2 ± 58.2 μm. The “Number of Blood Vessels” value ([2]; 0.1 μM) was 26.1 ± 3.3, the “Length of Blood Vessels” value ([2]; 1.0 μM) was 447.6 ± 19.5 μm and the “proliferation of vascular endothelial cell” value [3] was “significantly promoted”. For the same molecule, the “inhibitory effect on collagen-induced platelet aggregation” value [4] was “more significant”, the “time until undead animals returned to normal” value ([5]; both, mouse, in vivo, iv) was 10 min and the “Mortality Rate (%)” value ([5]; both, mouse, in vivo, iv, 320 mg/kg) was 0%. For the same molecule, the “Mortality Rate (%)” value ([5]; both, mouse, in vivo, iv, 375 mg/kg) was 40%, the “Mortality Rate (%)” value ([5]; both, mouse, in vivo, iv, 400 mg/kg) was 40% and the “Mortality Rate (%)” value ([5]; both, mouse, in vivo, iv, 480 mg/kg) was 50%. The “Mortality Rate (%)” value ([5]; both, mouse, in vivo, iv, 530 mg/kg) was 100%, the “Mortality Rate (%)” value ([5]; both, mouse, in vivo, iv, 629 mg/kg) was 100% and the “time to death after the administration” value ([5]; mice, rapid IV, dead animals) was ≤ 1 min. For the same molecule, the “autopsy of dead mice, vital organs (heart, liver, spleen, lung, kidney, brain, stomach, intestine)” value ([5]; mouse, in vivo, iv) was “no abnormality”, the LD50 ([6]; read-out: LD50 95% confidence interval) was 370 to 486 mg/kg and the LD50 ([6]; read-out: LD50 (Bliss method, Feiller heterogeneity correction)) was 424 ± 58 mg/kg. For the same molecule, the LD50 ([6]; read-out: LD50 (regression equation, without heterogeneity correction)) was 424 mg/kg, the absolute lethal dose ([7]; mice, premeasurement) was 2400 mg/kg and the anatomy findings ([7]; mouse, in vivo) was “No abnormal changes”. For the same molecule, the LD50 at 14 days ([8]; read-out: LD50 95% confidence limit) was 1960 to 2140 mg/kg, the LD50 at 14 days ([8]; read-out: LD50 (Bliss method)) was 2050 mg/kg and the “red blood cell hemolysis” value [9] was “no obvious hemolysis”. The “inhibitory effect on ADP-induced platelet aggregation” value [10] was “significantly inhibit” and the “migration of human umbilical vein endothelial cells (HUVEC)” value [11] was “could promote the migration”.

In the case of `Clc1ccc(Nc2nnc(Cc3ccncc3)c3ccccc23)cc1` [PTK787, reference compound], the “Number of Blood Vessels” value ([2]; 0.1 μg/ml) is reported as 3.6 ± 1.3 and the “Length of Blood Vessels” value ([2]; 0.1) is reported as 36.4 ± 14.2 μm.

For `COC(=O)[C@H](c1ccccc1Cl)N1CCc2sccc2C1` [clopidogrel, reference compound], the “inhibitory effect on ADP-induced platelet aggregation” value [10] was “significantly inhibited”.

For VEGF, the “Length of Blood Vessels” value ([2]; 10 ng/ml) was 420.0 ± 54.2 μm and the “Number of Blood Vessels” value ([2]; 10 ng/ml) was 29.3 ± 3.3.

Source: patent US10993926B2, “Use of IDHP in preparation of drug or health product for prevention and treatment of coronary atherosclerosis disease” (NORTHWEST UNIVERSITY, priority 2016, dated 2021)
